Assay results: US8410145B2, “Insecticidal compounds” (Syngenta Crop Protection LLC, priority 2007, dated 2013)

Tests used:
Assay type in all cases: in vivo
[1] = test system: Spodoptera littoralis (Egyptian Cotton Leafworm); assay: Spodoptera littoralis cotton leaf disc spray test; settings: foliar, 72 h, 200 ppm spray on cotton leaf discs, L1 larvae, mortality, feeding behavior, growth regulation 3 DAT
Description: (§1) Cotton leaf discs were placed on agar in a 24-well microtiter plate and sprayed with test solutions at an application rate of 200 ppm. After drying, the leaf discs were infested with 5 to L1 larvae. The samples were checked for mortality, feeding behavior, and growth regulation 3 days after treatment (DAT). The following compounds gave at least 80% control of Spodoptera littoralis: A1, A2, A3, A4, A6, A9, A10, A11, A12, A13, A14, A15, A16, A19, A20, A22, A23, A25, A26, A27, B1, B2, B3, B5, B6, B7, B8, B9, B11, B12, B13, B15, B16, B18, B19, B20, B21, B22, B24, B26, B27, B28, C1, C2, C3, C4, C5, C6, C7, C8, C9, C10, C12, C13, C16, C19, C20, C21, C22, C23, D1, D2, D3, D4, D5, D6, D7, D8, D9, D10, D11, D12, D13, D14, D15, D16, D17, D18, D19, D20, D21, D22, D23, D24. Heliothis virescens (Tobacco Budworm): Eggs (0-24 h old) were placed in 24-well microtiter plate on artificial diet and treated with test solutions at an application rate of 200 ppm (concentration in well 18 ppm) by pipetting. After an incubation period of 4 days, samples were checked for egg mortality, larval mortality, and growth regulation. The following compounds gave at least 80% control of Heliothis virescens: A1, A2, A3, A4, A13, A15, A17, A19, A20, A22, A23, A25, A26, A28, B1, B2, B3, B5, B6, B7, B9, B11, B13, B15, B18, B19, B20, B21, B25, B26, B27, B28, C1, C2, C3, C4, C5, C6, C7, C8, C9, C10, C12, C14, C16, C17, C19, C20, C21, C22, D1, D2, D3, D4, D5, D6, D7, D8, D9, D10, D11, D12, D13, D14, D15, D16, D17, D18, D19, D20, D21, D22, D23, E1, E2, E3, E4, E5. Plutella xylostella (Diamond Back Moth): 24-well microtiter plate (MTP) with artificial diet was treated with test solutions at an application rate of 200 ppm (concentration in well 18 ppm) by pipetting. After drying, the MTP's were infested with L2 larvae (7-12 per well). After an incubation period of 6 days, samples were checked for larval mortality and growth regulation. The following compounds gave at least 80% control of Plutella xylostella: A1, A3, A4, A10, All, A15, A19, A23, A25, B1, B2, B3, B5, B6, B7, B8, B9, B11, B13, B15, B18, B19, B20, B21, B26, B27, B28, C1, C2, C3, C4, C6, C7, C8, C9, C12, C16, C19, C20, C22, D1, D2, D3, D4, D5, D6, D7, D8, D9, D10, D12, D13, D14, D15, D16, D17, D18, D19, D20, D21, D22, D23, E1, E3, E5. Diabrotica balteata (Corn Root Worm): A 24-well microtiter plate (MTP) with artificial diet was treated with test solutions at an application rate of 200 ppm (concentration in well 18 ppm) by pipetting. After drying, the MTP's were infested with L2 larvae (6-10 per well). After an incubation period of 5 days, samples were checked for larval mortality and growth regulation. The following compounds gave at least 80% control of Diabrotica balteata: A2, A3, A4, A9, A11, A12, A13, A14, A15, A17, A19, A21, A22, A23, A24, A25, A26, B1, B2, B3, B6, B7, B8, B11, B13, B14, B15, B18, B19, B20, B21, B22, B26, B28, C1, C2, C3, C4, C5, C6, C7, C8, C9, C10, C12, C14, C15, C16, C19, C20, C21, C22, C23, C26, D1, D2, D4, D5, D6, D7, D8, D9, D10, D12, D14, D15, D16, D17, D18, D19, D20, D21, D22, D23, E2, E3, E5. Thrips tabaci (Onion Thrips): Sunflower leaf discs were placed on agar in a 24-well microtiter plate and sprayed with test solutions at an application rate of 200 ppm. After drying, the leaf discs were infested with an […] population of mixed ages. After an incubation period of 7 days, samples were checked for mortality. The following compounds gave at least 80% control of Thrips tabaci: B1, B7, B11, B15, B18, B19, B28, D1, D2, D3, D4, D5, D6, D7, D8, D9, D10, D12, D16, D18, D19, D20, D21, D23. Tetranychus urticae (Two-Spotted Spider Mite): Bean leaf discs on agar in 24-well microtiter plates were sprayed with test solutions at an application rate of 200 ppm. After drying, the leaf discs are infested with mite populations of mixed ages. 8 days later, discs are checked for egg mortality, larval mortality, and adult mortality. […]

[2] = test system: Heliothis virescens (Tobacco Budworm); assay: Heliothis virescens egg test on artificial diet; settings: 96 h, 200 ppm (concentration in well 18 ppm), eggs 0-24 h old on artificial diet, egg mortality, larval mortality, growth regulation after 4 days
Description: as §1

[3] = test system: Plutella xylostella (Diamond Back Moth); assay: Plutella xylostella larvae test on artificial diet; settings: 144 h, 200 ppm (concentration in well 18 ppm), L2 larvae, larval mortality and growth regulation after 6 days
Description: as §1

[4] = test system: Diabrotica balteata (Corn Root Worm); assay: Diabrotica balteata larvae test on artificial diet; settings: 120 h, 200 ppm (concentration in well 18 ppm), L2 larvae, larval mortality and growth regulation after 5 days
Description: as §1

[5] = test system: Thrips tabaci (Onion Thrips); assay: Thrips tabaci sunflower leaf disc spray test; settings: foliar, 168 h, 200 ppm spray on sunflower leaf discs, population of mixed ages, mortality after 7 days
Description: as §1

[6] = test system: Tetranychus urticae (Two-Spotted Spider Mite); assay: Tetranychus urticae bean leaf disc spray test; settings: foliar, 192 h, 200 ppm spray on bean leaf discs, mite populations of mixed ages, egg, larval and adult mortality 8 days later
Description: as §1

Measured: pest or weed control at 200 ppm

N#Cc1ccc(C2=NOC(c3cc(Cl)cc(Cl)c3)(C(F)(F)F)C2)cc1NC(=O)c1ccc([N+](=O)[O-])cc1 (stereo not drawn) [D8]
≥ 80%: [1] | [2] | [3] | [4] | [5] | [6]

Cc1ccccc1C(=O)Nc1cc(C2=NOC(c3cc(Cl)cc(Cl)c3)(C(F)(F)F)C2)ccc1C#N (stereo not drawn) [D6]
≥ 80%: [1] | [2] | [3] | [4] | [5] | [6]

N#Cc1ccc(C(=O)Nc2cc(C3=NOC(c4cc(Cl)cc(Cl)c4)(C(F)(F)F)C3)ccc2C#N)cc1 (stereo not drawn) [D1]
≥ 80%: [1] | [2] | [3] | [4] | [5] | [6]

N#Cc1ccc(C2=NOC(c3cc(Cl)cc(Cl)c3)(C(F)(F)F)C2)cc1NC(=O)c1ccccc1Cl (stereo not drawn) [D7]
≥ 80%: [1] | [2] | [3] | [4] | [5] | [6]

Cc1ccc(C(=O)Nc2cc(C3=NOC(c4cc(Cl)cc(Cl)c4)(C(F)(F)F)C3)ccc2C#N)cc1 (stereo not drawn) [D9]
≥ 80%: [1] | [2] | [3] | [4] | [5] | [6]
